# Read-outs that look alike come from different tables or passages of the source.
# Key:
# [1] = test system: Influenza A/Duck/MN/1525/81 (H5N1); set-up: species or system mice; details: mouse, in vivo
# [2] = test system: Influenza A/Duck/MN/1525/81 (H5N1); set-up: species or system mice; details: mouse, in vivo; remark: listed apart in the source
# [3] = test system: Influenza A/Duck/MN/1525/81 (H5N1); set-up: species or system mice; details: mouse, in vivo; remark: listed apart in the source
# [4] = test system: Influenza A/Duck/MN/1525/81 (H5N1); set-up: species or system mice; details: mouse, in vivo; remark: listed apart in the source
# [5] = test system: human PBMCs activated with Poly r(I:C); test: cells; format: cell-based; details: for EC50: read-out: EC50 for reduction of cytokine release (TNFalpha production) from human PBMCs
# [6] = test system: Influenza A/Duck/MN/1525/81 (H5N1); set-up: species or system mice; details: mouse, in vivo; remark: listed apart in the source
SMILES,Average % loss (animal weight loss as percent of initial weight) [1],"Lung score, Mean [2]","Lung weight, Mean [2]","Lung cytokine concentration, CCL2 Average [3]","Lung cytokine concentration, IFNg Average [3]","Lung cytokine concentration, IL-6 Average [3]","Lung cytokine concentration, IL-10 Average [3]","Lung cytokine concentration, IL-12 Ave [3]",MDD (mean day of death) [4],Survival [4],EC50 [5],Mean number of cells (lung) [6],EC50 for reduction of cytokine release (TNFalpha production) from human PBMCs [5],"EC50 ([5]; Homo sapiens, PBMC, 18 h)"
"CC#CC[C@H](C)[C@H](O)/C=C/[C@@H]1[C@H]2c3cccc(CCCC(=O)[O-])c3O[C@H]2C[C@H]1O.[Na+] (single isomer, unassigned; isomer a) [Isomer A]",76%,2.00,0.22 grams,953 pg/mL,1046 pg/mL,521 pg/mL,223 pg/mL,3800 pg/mL,13,4/10,4 nM,1.15,–,–
"CC#CCC(C)C(O)C=CC1C(O)CC2Oc3c(CCCC(=O)O)cccc3C21 (single isomer, unassigned; isomer d) [Isomer D]",68%,3.50,0.37 grams,2347 pg/mL,2074 pg/mL,1291 pg/mL,758 pg/mL,2603 pg/mL,7,0/10,–,–,No,–
"CC#CCC(C)C(O)C=CC1C(O)CC2Oc3c(CCCC(=O)[O-])cccc3C21.[Na+] (centres unmarked) [Beraprost, 2,3,3a,8b-tetrahydro-2-hydroxyl-1-(3-hydroxyl-4-methyl-1-octen-6-ynyl)-1H-cyclopenta[b]benzofuran-5-butanoic acid, sodium salt]",76%,2.0,0.24 grams,1308 pg/mL,1601 pg/mL,604 pg/mL,621 pg/mL,3517 pg/mL,11.5,3/10,–,2.63,–,11 nM

# — patent US20140275237A1, “BERAPROST ISOMER AS AN AGENT FOR THE TREATMENT OF VIRAL INFECTION” (priority 2013, published 2014)
